Laboratory results from patent US20040001822A1, “Y1-isolated molecules comprising epitopes containing sulfated moieties, antibodies to such epitopes, and uses thereof” (priority 2000, published 2004).
Starred links: 1 amine or outer side, 2 acyl side, 3 side chain; linkers in the order of their positions; H or OH if unused. Primed or numbered codes have the meaning given here. No end group written: not given here. *: point of attachment. SO3H = sulfated tyrosine (Y*), O=S(=O)(O)[*:2]; SO3H″ = O=S(=O)(O)*

Experiments:
KG-1 cells = experiment: AML KG-1 model in NOD/SCID mice; format: in vivo; conditions: for percentage of KG-1 cells in bone marrow compared to untreated group 2: Doxorubicin 0.1 mg/kg 3 times per week, CONY1-Doxorubicin 75 μg/mouse 3 times per week, Mylotarg 0.2 mg/kg 1 time per week
Protocol: The in vivo mouse model for human AML uses SCID/NOD mice (Jackson Laboratories) inoculated with KG-1 cells derived from a human AML cell line.
In a first experiment, NOD/SCID mice were pretreated with 100 mg/kg CYTOXAN®. Four days post CYTOXAN® injection, KG-1 cells were injected intravenously into the tail vein of six groups of mice. (Table N, Groups 2 and 5-9). One group of mice (Table N, Group 1) was injected with PBS alone (control).
Beginning 19 days post KG-1 injection mice were treated with: CONY1, Doxorubicin, CONY1-Doxorubicin conjugate, or Mylotarg®. (Mylotarg® is a monoclonal antibody (anti CD33) conjugated chemically to calcheamicin recently approved by the FDA for treatment of AML patients age 60 and over in a first relapse.) Mice were treated once or three times per week for three weeks. One group (group 2) of KG-1 inoculated mice were left untreated. (Table N). Two other groups of mice (groups 3 and 4) were injected with KG-1 cells that were previously incubated with CONY1 or 181-scFv (a negative, non-specific control antibody) in serum free RPMI containing 1% BSA at 4° C. for 1 h. The antibodies were used at a concentration of 0.25 mg scFv/l 10^8 cells (75 μg/mouse). Before injection into the mice the preincubated KG-1 cells were washed and resuspended in RPMI. The KG-1 cells in RPMI were inoculated into mice at a concentration of 75 μg scFv/0.2 ml RPMI per mouse. Group 3 mice were inoculated with KG-1+CONY1, and group4 mice were inoculated with KG-1+181-scFv. (Table N). This treatment (group 3 and 4) was carried out one day after the inoculation of groups 1-2 and 5-9, i.e., at five days after CYTOXAN injection.
Mice were sacrificed from 60 to 65 days post cell injection. Bone marrow samples were analyzed by flow cytometry using mouse anti human CD34-FITC (IQP 144F) (or anti CD44-FITC (MCA89F, Serotec)) and Y1-Biotin/SAV-PE. Mouse IgG1-FITC (IQP 191-F) was used as an isotype control, and mouse IgG2a-FITC (MCA929F, Serotec) was used as a negative control. Flow cytometry was performed using FACSCalibur system and CellQwest software, Becton Dickinson.
An additional experiment was performed in which SCID-NOD mice were i.v. injected with 3×10^4 MOLT-4 cells/mouse 5 days post treatment with cyclophosphamide. Anti-cancer agents or PBS were injected IV three times/week, from day 14 onward. On day 60, blood was drawn, then the animals were sacrificed. Bone marrow was extracted and analyzed by FACS analysis using a commercially available antiCD44 antibody for the detection of MOLT-4 cells in the mice bone marrow cell population.

[1] = tested on: Y1 Binding to Glycocalicin; experiment: ELISA: effect of synthetic GPIbα peptides on Y1 binding to purified glycocalicin; set-up: species or system human; conditions: 0.25 μg/well Y1
Sequence of Y1 Binding to Glycocalicin (as listed by the source): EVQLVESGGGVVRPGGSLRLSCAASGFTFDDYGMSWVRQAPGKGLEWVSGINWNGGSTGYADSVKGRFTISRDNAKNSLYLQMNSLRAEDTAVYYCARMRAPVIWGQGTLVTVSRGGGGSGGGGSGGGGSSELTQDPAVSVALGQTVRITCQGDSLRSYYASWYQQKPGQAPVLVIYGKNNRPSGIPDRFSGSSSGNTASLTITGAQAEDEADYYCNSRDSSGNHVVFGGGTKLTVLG
Protocol: ELISA assays were developed to evaluate the effect of the GPIb derived synthetic peptides on the binding of Y1 to purified glycocalicin. In addition, FACS analysis using washed platelets was carried out. To evaluate the importance of sulfated tyrosine within the Y1 binding site of GPIb, a competitive binding FACS analysis was used. Y1-scFv at a concentration of 1 μg was preincubated with different peptides at concentrations of 2.5 and 200 μM. After a preincubation for 30 minutes at room temperature the mixture was added to a tube containing ˜10^7 washed platelets and the binding of Y1 to the washed platelets was assessed using polyclonal rabbit anti-scFv-PE. The inhibitory effect of the peptides compared to control binding (Y1 alone) was evaluated by measuring the residual binding of Y1 to washed platelets. The peptides and the results are described in Table 1 and are similar to results that were observed using the same peptides in an ELISA assay (Table B). In both assays, a control level of Y1 binding was determined, as follows. A polystyrene microtiter maxisorb plate was coated with (a) purified glycocalicin or (b) washed platelets. […] The plate was then incubated with rabbit anti-scFv followed by addition of anti rabbit-HRP (horse radish peroxidase) and HRP substrate. The level of anti rabbit-HRP binding was measured by the intensity of the color produced, and the level of anti rabbit-HRP binding correlates with the level of binding of anti Y1-scFv and the level of binding of Y1. The optical density was measured at A405. Each sample was assayed in duplicate, and the average was calculated.
The effect of synthetic GPIbα peptides on Y1 binding to purified glycocalicin was evaluated by mixing varying concentrations of the peptides with a constant amount of Y1. After a preincubation for 30 minutes at room temperature, the mixture was added to a polystyrene microtiter maxisorb plate coated with purified glycocalicin, as described for evaluation of Y1 binding in the absence of peptides. The inhibitory effect of the peptides was evaluated by measuring the residual binding of Y1 to glycocalicin using rabbit anti Y1 scFv and anti rabbit-HRP antibodies, as described for evaluation of Y1 binding in the absence of peptides. This study was performed with four peptides representing various subsets of the sequence 268 to 285 and a control peptide. Each peptide was tested at different concentrations: 200 μM, 25 μM, 2.5 μM, and 0.5 μM.

washed platelets = experiment: Competitive FACS: effect of synthetic GPIbα peptides on Y1 binding to washed platelets; set-up: species or system human
Protocol: ELISA assays were developed to evaluate the effect of the GPIb derived synthetic peptides on the binding of Y1 to purified glycocalicin. In addition, FACS analysis using washed platelets was carried out. To evaluate the importance of sulfated tyrosine within the Y1 binding site of GPIb, a competitive binding FACS analysis was used. Y1-scFv at a concentration of 1 μg was preincubated with different peptides at concentrations of 2.5 and 200 μM. After a preincubation for 30 minutes at room temperature the mixture was added to a tube containing ˜10^7 washed platelets and the binding of Y1 to the washed platelets was assessed using polyclonal rabbit anti-scFv-PE. The inhibitory effect of the peptides compared to control binding (Y1 alone) was evaluated by measuring the residual binding of Y1 to washed platelets. The peptides and the results are described in Table 1 and are similar to results that were observed using the same peptides in an ELISA assay (Table B). In both assays, a control level of Y1 binding was determined, as follows. A polystyrene microtiter maxisorb plate was coated with (a) purified glycocalicin or (b) washed platelets. After extensive washing, 0.5 μg/well of Y1 was added. The plate was then incubated with rabbit anti-scFv followed by addition of anti rabbit-HRP (horse radish peroxidase) and HRP substrate. The level of anti rabbit-HRP binding was measured by the intensity of the color produced, and the level of anti rabbit-HRP binding correlates with the level of binding of anti Y1-scFv and the level of binding of Y1. The optical density was measured at A405. Each sample was assayed in duplicate, and the average was calculated.

[2] = tested on: scFv Y1 binding to glycocalicin; experiment: Competitive binding ELISA of sulfated peptides to Y1; set-up: species or system human; conditions: for Inhibition of Y1 binding to glycocalicin by peptide: peptide preincubated with scFv Y1 at 1, 10 and 100 μM
Sequence of scFv Y1 binding to glycocalicin (as listed by the source): as above
Protocol: A competitive binding ELISA assay was used to assess the importance of position of sulfated tyrosines to the binding of peptides to Y1.
Glycocalicin was immobilized on a Maxisorb plate. scFv Y1 was preincubated with a peptide of interest for 10 minutes at three different concentrations (1, 10 and 100 μM) in order to observe a dose response. (Table 12). After preincubation, the mixture (Y1+peptide) was added to the plate, and binding of scFv Y1 was assessed using polyclonal rabbit anti-VL, which recognizes the VL chain of scFv Y1, followed by anti-rabbit-HRP. In mixtures in which the peptide bound to scFv Y1, a decrease in the binding of scFv Y1 to glycocalicin compared to control binding was observed.

| Compound | Residual Binding of Y1 (% of baseline) ([1]; peptide 0.5 μM) | Residual Binding of Y1 (% of baseline) ([1]; peptide 2.5 μM) | Residual Binding of Y1 (% of baseline) ([1]; peptide 25 μM) | Residual Binding of Y1 (% of baseline) (Geo Mean) (washed platelets; peptide 2.5 μM) | Residual Binding of Y1 (% of baseline) (Geo Mean) (washed platelets; peptide 200 μM) | Inhibition of Y1 binding to glycocalicin by peptide [2] | other results |
| --- | --- | --- | --- | --- | --- | --- | --- |
| COc1cccc2c1C(=O)c1c(O)c3c(c(O)c1C2=O)C[C@@](O)(C(=O)CO)C[C@@H]3O[C@H]1C[C@H](N)[C@H](O)[C@H](C)O1 [Doxorubicin] |  |  |  |  |  |  | reduction in the number of tumor cells in the bone marrow (KG-1 cells; additional experiment, day 60): 50%; mice that died within three weeks after treatment initiation (KG-1 cells; first experiment, group 7, 5 mg/kg, 1 time per week): Nine out of 10; percentage of KG-1 cells in bone marrow compared to untreated group 2 (KG-1 cells; first experiment): statistically significant (p<0.05) lower percentage |
| GDEGDTDLY*DY*Y*P (GDEGDTDLYDYYP; not fully specified (residues 9, 11, 12); printed as GDEGDTDLY*DY*Y*P) [P-3-S, residues 268-280 of GPIbα] | 80 % of baseline | 67 % of baseline | 21 % of baseline | 82 % of baseline | 26 % of baseline |  |  |
| GDEGDTDLY*DY*Y*PEEDTE (GDEGDTDLYDYYPEEDTE; not fully specified (residues 9, 11, 12); printed as GDEGDTDLY*DY*Y*PEEDTE) [P-1-S, residues 268-285 of GPIbα, Y* sulfated tyrosine] | 89 % of baseline | 62 % of baseline | 25 % of baseline | 41 % of baseline | 5 % of baseline | did inhibit the binding | Residual Binding of Y1 (% of baseline) ([1]; peptide 200 μM): 0 % of baseline |
| GDEGDTDLYDYYPEEDTE [P-1, residues 268-285 of GPIbα, non-sulfated] | 88 % of baseline | 94 % of baseline | 71 % of baseline |  | 87 % of baseline |  | Residual Binding of Y1 (% of baseline) ([1]; peptide 200 μM): 61 % of baseline |
| Mylotarg: monoclonal antibody (anti CD33) conjugated chemically to calcheamicin |  |  |  |  |  |  | prevalence of cancer cells in the bone marrow (KG-1 cells; additional experiment, day 60, CONY1 scFv 75 μg/mouse three times/week, Mylotarg 7 μg/mouse once a week): completely inhibited; percentage of KG-1 cells in bone marrow compared to untreated group 2 (KG-1 cells; first experiment): free of KG 1 cells |
| QATEY*EY*LDYDFLPETE (QATEY(SO3H)EY(SO3H)LDYDFLPETE) [P-Y* Y*Y, PSGL-1 n-terminus peptide, sulfated] |  |  |  |  |  | inhibited Y1 binding to glycocalicin |  |
| QATEY*EYLDY*DFLPETE (QATEY(SO3H)EYLDY(SO3H)DFLPETE) [P-Y*Y Y*, PSGL-1 n-terminus peptide, sulfated] |  |  |  |  |  | inhibited Y1 binding to glycocalicin |  |
| QATEY*EYLDYDFLPETE (QATEY(SO3H)EYLDYDFLPETE) [P-Y*YY, PSGL-1 n-terminus peptide, sulfated] |  |  |  |  |  | inhibited Y1 binding to glycocalicin | peptide concentration at which binding is inhibited efficiently ([2]; competitive ELISA, scFv Y1 on glycocalicin): 100 µM |
| QATEYEY*LDY*DFLPETE (QATEYEY(SO3H″)LDY(SO3H″)DFLPETE) [P-YY* Y*, PSGL-1 n-terminus peptide, sulfated] |  |  |  |  |  | best inhibitors |  |
| QATEYEY*LDYDFLPETE (QATEYEY(SO3H)LDYDFLPETE) [P-YY*Y, PSGL-1 n-terminus peptide, sulfated] |  |  |  |  |  | inhibited Y1 binding to glycocalicin |  |
| REEGRQHFFLLEGRSSYS [negative control peptide, reference compound] |  | 100 % of baseline | 89 % of baseline | 96 % of baseline |  |  | Residual Binding of Y1 (% of baseline) ([1]; peptide 200 μM): 85 % of baseline |
| TDLY*DY*Y*PEEDTE (TDLYDYYPEEDTE; not fully specified (residues 4, 6, 7); printed as TDLY*DY*Y*PEEDTE) [P-2-S, residues 273-285 of GPIbα] | 78 % of baseline | 52 % of baseline | 15 % of baseline | 61 % of baseline | 7 % of baseline |  |  |
